“And” between values parts separate entries of the source, which are not always exact repeats. Equal entries are not always repeated. “Also recorded” adds a separate entry of the source. Where two headings read alike, the source gives them in different places.
Assays:
ST = settings: cited from earlier work
[1] = tested on: basal intestinal fluid secretion; set-up: species or system suckling mice; settings: mouse, in vivo
[2] = tested on: 8-bromo cyclic GMP-induced intestinal fluid secretion; set-up: species or system suckling mice; settings: mouse, in vivo
[3] = tested on: Escherichia coli heat-stable enterotoxin (ST)-induced intestinal fluid secretion; format: in vivo, suckling mice
guanylate cyclase [4] = target: guanylate cyclase (Rattus norvegicus, UniProt P23897); assay: biochemical; set-up: species or system Sprague-Dawley rat; settings: for % Inhibition of ST-activated guanylate cyclase activity: ST-activated (6 units/ml); for % Inhibition of ST-activated guanylate cyclase activity / inhibition at 1000 µM: 1.0 mM; for inhibition at 10000 µM: 10 mM; for inhibition at 100 µM: 0.1 mM
Chain of guanylate cyclase (Rattus norvegicus, UniProt P23897) (P23897 23-1072): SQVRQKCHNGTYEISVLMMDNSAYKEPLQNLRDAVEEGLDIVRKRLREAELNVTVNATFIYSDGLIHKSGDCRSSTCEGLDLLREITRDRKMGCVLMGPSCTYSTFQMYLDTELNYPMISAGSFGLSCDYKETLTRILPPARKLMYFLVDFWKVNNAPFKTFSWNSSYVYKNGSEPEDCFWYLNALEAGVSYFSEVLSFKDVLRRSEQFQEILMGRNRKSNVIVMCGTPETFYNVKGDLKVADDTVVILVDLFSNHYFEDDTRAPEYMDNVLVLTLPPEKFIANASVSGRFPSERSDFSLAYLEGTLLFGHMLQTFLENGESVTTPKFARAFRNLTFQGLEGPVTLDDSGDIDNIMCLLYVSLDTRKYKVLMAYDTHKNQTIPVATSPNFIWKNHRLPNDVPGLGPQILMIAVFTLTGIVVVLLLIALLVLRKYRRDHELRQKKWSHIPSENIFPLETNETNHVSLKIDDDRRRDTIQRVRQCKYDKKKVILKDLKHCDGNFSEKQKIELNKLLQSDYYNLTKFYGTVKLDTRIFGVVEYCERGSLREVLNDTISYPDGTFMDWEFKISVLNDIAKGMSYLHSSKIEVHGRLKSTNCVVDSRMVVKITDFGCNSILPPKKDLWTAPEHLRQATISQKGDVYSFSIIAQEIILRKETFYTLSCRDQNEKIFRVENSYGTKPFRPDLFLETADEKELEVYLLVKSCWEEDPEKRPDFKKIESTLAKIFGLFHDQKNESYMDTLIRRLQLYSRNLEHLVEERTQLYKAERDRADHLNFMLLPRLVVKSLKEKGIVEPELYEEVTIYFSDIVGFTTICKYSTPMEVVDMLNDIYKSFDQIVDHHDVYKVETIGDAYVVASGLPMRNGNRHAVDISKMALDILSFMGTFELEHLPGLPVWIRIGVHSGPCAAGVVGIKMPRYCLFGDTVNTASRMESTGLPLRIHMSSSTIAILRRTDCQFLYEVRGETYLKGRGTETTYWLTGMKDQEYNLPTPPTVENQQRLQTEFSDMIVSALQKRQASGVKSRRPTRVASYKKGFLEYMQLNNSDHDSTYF

guanylate cyclase [5] = settings: cited from earlier work
[6] = read-out: % Inhibition of ST-activated guanylate cyclase activity, ST-activated (6 units/ml)
[7] = read-out: % Inhibition of basal guanylate cyclase activity, basal
[8] = read-out: inhibition of ST-activated guanylate cyclase activity, ST-activated (6 ST units/ml)
[9] = read-out: inhibition of basal guanylate cyclase activity, basal

Structure (SMILES)	effect on basal intestinal fluid level (in words) ([1]; sc)	Intestinal:Body Wt. Ratio, 8-bromo cyclic GMP-induced [2]	Intestinal:Body Wt. Ratio, 8-bromo cyclic GMP-induced ([2]; sc)	intestinal fluid ratio (intestinal weight to remaining body weight), ST-induced ([3]; mouse, in vivo)	effect on ST-induced secretion (in words) ([3]; mouse, in vivo, sc)	intestinal fluid ratio (intestinal weight to remaining body weight), ST-induced ([3]; mouse, in vivo, sc)	% Inhibition of ST-activated guanylate cyclase activity (guanylate cyclase [4]) [%]	effect on basal guanylate cyclase activity (in words) (guanylate cyclase [4]; 1 mM)	inhibition at 1000 µM (guanylate cyclase [4]; [6]) [%]	inhibition at 1000 µM (guanylate cyclase [4]; [7]) [%]	effect on 8-bromo cyclic GMP-induced intestinal secretion (in words) [2]	other results
O[C@H](CS)[C@H](O)CS (racemic) [dithiothreitol]	–	–	–	–	–	–	–	–	–	–	–	effect on biological activity of ST (in words) (ST): loses biological activity promptly
CC(=O)N[C@@H](CS)C(=O)O [Acetylcysteine, acetylcysteine]	not affected	0.1028 ± 0.003	0.1024 ± 0.003	0.0796±0.005 and 0.1061±0.005	no inhibition	0.0804±0.003	14	did not alter basal guanylate cyclase activity; also recorded: None of the other sulfhydryl compounds (1 mM) affected basal enzyme activity	11 to 21	0	–	effect on basal fluid level (in words) ([1]; sc): not altered; effect on ST-induced responses (in words) ([3]; mouse, in vivo): No significant inhibition; % Inhibition of ST-activated guanylate cyclase activity (guanylate cyclase [4]; listed as acetylcysteine): 15%
NCCSSCCN [Cystamine, cystamine]	did not significantly alter basal intestinal fluid levels	0.1188 ± 0.003	0.1115 ± 0.003	–	reduce ST-induced intestinal secretion; also recorded: significantly reduce secretion; also recorded: significantly reduced ST-induced secretion	0.0935±0.003 and 0.1154± 0.006	–	–	73	45	no effect	effect on ST-induced secretion (in words) ([3]; mouse, in vivo): did not significantly affect ST-induced secretion; effect on guanylate cyclase (in words) (guanylate cyclase [5]): very marked effects on guanylate cyclase activity; also recorded: almost completely inactivate; inhibition at 10000 µM (guanylate cyclase [4]; [8]): 82%; inhibition at 10000 µM (guanylate cyclase [4]; [9]): 54%; inhibition at 100 µM (guanylate cyclase [4]; read-out: reduction in basal guanylate cyclase activity, basal): 13%; inhibition at 100 µM (guanylate cyclase [4]; read-out: reduction of ST-induced guanylate cyclase activity, ST-activated (6 ST units/ml)): 32%
N[C@@H](CCSC[C@H](N)C(=O)O)C(=O)O [Cystathionine, cystathionine]	–	0.1043 ± 0.002	0.1175 ± 0.004	–	–	–	–	–	–	–	no alteration	effect on basal responses (in words) [1]: no alteration; effect on basal secretion (in words) ([1]; sc): nor alter the basal secretory ratio; effect on ST-induced fluid secretion (in words) ([3]; mouse, in vivo): no alteration; effect on ST-induced fluid secretion (in words) ([3]; mouse, in vivo, sc): did not inhibit ST-induced fluid secretion; effect on ST-activated guanylate cyclase activity (in words) (guanylate cyclase [4]; ST-activated, concentration not given): no effect; effect on basal guanylate cyclase activity (in words) (guanylate cyclase [4]; concentration not given): no effect
NCCS [Cysteamine, cysteamine]	–	0.1106 ± 0.010	0.1071 ± 0.005	0.0804±0.005	–	0.0765±0.003 and 0.0840 ± 0.005	21	did not alter basal guanylate cyclase activity; also recorded: did not affect basal activity	11 to 21	0	–	effect on basal secretion (in words) [1]: did not alter basal secretion; effect on basal fluid level (in words) ([1]; sc): not affected; P of inhibition of ST-induced secretion (FIG. 2) ([3]; mouse, in vivo): < 0.001; effect on ST-induced fluid secretion (in words) ([3]; mouse, in vivo): most effective inhibitory agent; effect on ST-induced secretion (in words) ([3]; mouse, in vivo): significantly reduced; also recorded: reduced secretion; intestinal-fluid ratio ± SEM ([3]; mouse, in vivo): .125 ± 0.003; intestinal-fluid ratio ± SEM, experiment #1 ([3]; mouse, in vivo): .127 ± .007; intestinal-fluid ratio ± SEM, experiment #2 ([3]; mouse, in vivo): .119 ± .006; effect on ST-induced ratio (in words) ([3]; mouse, in vivo, sc): not significantly changed; % Inhibition of ST-activated guanylate cyclase activity (guanylate cyclase [4]; listed as cysteamine): 21%; inhibition at 10000 µM (guanylate cyclase [4]; [8]): 63%; inhibition at 10000 µM (guanylate cyclase [4]; [9]): 15%
N[C@H](CS)C(=O)O [D-cysteine]	No effect on basal fluid level	0.1191 ± 0.006	0.1155 ± 0.005	0.0768±0.002 and 0.1121±0.005	–	–	16	did not alter basal guanylate cyclase activity; also recorded: None of the other sulfhydryl compounds (1 mM) affected basal enzyme activity	11 to 21	0	–	effect on ST-induced fluid responses (in words) ([3]; mouse, in vivo, sc): neither D- or L-cysteine inhibited ST-induced fluid responses
N[C@H](CSSC[C@@H](N)C(=O)O)C(=O)O [D-cystine]	–	0.1048 ± 0.004	0.1001 ± 0.005	0.1034±0.004 and 0.1197±0.004	neither compound reduced intestinal secretion	0.1092±0.011	–	neither drug affected basal activity	33	0	Neither compound altered cyclic GMP-induced intestinal secretion	effect on basal secretion (in words) ([1]; sc): Neither agent given s.c. or i.g. significantly altered basal secretion; effect on ST-induced intestinal secretion (in words) ([3]; mouse, in vivo): significantly reduced; effect on ST-induced guanylate cyclase activity (in words) (guanylate cyclase [4]; ST-activated, 1 mM): significantly reduced; effect on basal guanylate cyclase activity (in words) (guanylate cyclase [4]; concentration not given): Neither compound inhibited basal guanylate cyclase activity
N[C@@H](CS)C(=O)O [L-cysteine]	No effect on basal fluid level	0.1097 ± 0.004	0.1051 ± 0.006	0.0680±0.001 and 0.0877±0.006	–	–	11	did not alter basal guanylate cyclase activity; also recorded: None of the other sulfhydryl compounds (1 mM) affected basal enzyme activity	11 to 21	0	–	effect on ST-induced fluid responses (in words) ([3]; mouse, in vivo, sc): neither D- or L-cysteine inhibited ST-induced fluid responses
N[C@@H](CSSC[C@H](N)C(=O)O)C(=O)O [L-cystine]	–	0.1191 ± 0.004	0.1043 ± 0.004	0.0940±0.004 and 0.1288±0.003	neither compound reduced intestinal secretion	0.1115±0.006	–	neither drug affected basal activity	39	0	Neither compound altered cyclic GMP-induced intestinal secretion	effect on basal secretion (in words) ([1]; sc): Neither agent given s.c. or i.g. significantly altered basal secretion; effect on ST-induced intestinal secretion (in words) ([3]; mouse, in vivo): significantly reduced; effect on ST-induced guanylate cyclase activity (in words) (guanylate cyclase [4]; ST-activated, 1 mM): significantly reduced; effect on basal guanylate cyclase activity (in words) (guanylate cyclase [4]; concentration not given): Neither compound inhibited basal guanylate cyclase activity
c1ccc2c(CC3=NCCN3)cccc2c1 [Naphazoline, naphazoline]	–	–	–	–	–	–	–	–	–	–	–	effect against ST (in words) ([3]; 10 mM): effective; intestinal-fluid ratio ± SEM, experiment #1 ([3]; mouse, in vivo): .150 ± .005; intestinal-fluid ratio ± SEM, experiment #2 ([3]; mouse, in vivo): .123 ± .005; death of mice (N = 3): ALL DEAD; margin to lethal dose (in words) (mouse, in vivo): only one log less than a lethal dose
NCCCNCCSP(=O)(O)O [S-2-(3-aminopropylamino) ethyl phosphorothioic acid]	–	–	–	–	–	–	–	–	–	–	–	Ratio ± SEM, ST-induced ([3]; mouse, in vivo): 0.1034 ± 0.008 and 0.0685 ± 0.003
N[C@@H](CS[35S]C[C@H](N)C(=O)O)C(=O)O [^35 S-cystine]	–	–	–	–	–	–	–	–	–	–	–	effect on guanylate cyclase (in words) (guanylate cyclase [5]): reversible loss of enzyme activity
COc1ccc2cc3[n+](cc2c1OC)CCc1cc2c(cc1-3)OCO2 [berberine]	–	–	–	–	–	–	–	–	–	–	–	intestinal-fluid ratio ± SEM ([3]; mouse, in vivo): .122 ± 0.003; intestinal-fluid ratio, pre-treatment ([3]; mouse, in vivo): .122 ± .004

Source: patent publication US4701458A (priority 1985, dated 1987)
